In ChEMBL document CHEMBL4017485, “Chromone as a Privileged Scaffold in Drug Discovery: Recent Advances” (J Med Chem, 2017) one finds IC50, MIC and EC50 data, which are given here for 13 molecules.

One assay addresses Acetylcholinesterase (Electrophorus electricus, UniProt O42275). The experiment in a line: Inhibition of electric eel AChE using acetylthiocholine iodide as substrate preincubated with substrate for 15 mins followed by protein addition measured after 5 mins by Ellaman's method.
The subject of the next assay is MG-63. As to the kind of experiment: Antiproliferative activity against human MG63 cells after 48 hrs by MTT assay. The note with it: MG-63, 48 h. The assay is classed as functional, cell-based. In general terms: Formazan colour is commonly taken as a measure of viable cells.
The test system of the next assay is U2OS. The experiment in a line: Antiproliferative activity against human U2OS cells after 48 hrs by MTT assay. The assay is classed as functional, cell-based.
A further assay has as its system Pseudomonas aeruginosa. As to the kind of experiment: Antibacterial activity against Pseudomonas aeruginosa ATCC 13384 after 16 hrs by broth dilution method. The format is functional. The note with it: ATCC 13384, 16 h. A general note: Dilution methods test growth across graded concentrations, often in twofold steps.
For a further assay, the system named is Staphylococcus aureus. As to the kind of experiment: Antibacterial activity against Staphylococcus aureus ATCC 6538 after 16 hrs by broth dilution method. The assay is classed as functional. The note with it: ATCC 6538, 16 h.
Another assay deals with Entamoeba histolytica. As to the kind of experiment: Antiamoebic activity against trophozoite stage of Entamoeba histolytica HM-1:IMSS incubated for 24 hrs measured after 48 hrs by dilution micromethod. The assay is classed as functional.
A short description of assay [1]: Antioxidant activity assessed as DPPH free radical scavenging activity. The assay is classed as functional. Background: DPPH is a stable violet radical that fades when it is reduced.
The nature of assay [2]: Inhibition of Saccharomyces cerevisiae alpha-glucosidase using PNP-G as substarte.
The next assay concerns Candida tropicalis. The experiment in a line: Antifungal activity against Candida tropicalis after 24 hrs by Neubauer chamber method. The format is functional.
For another assay, the system named is KB. As to the kind of experiment: Antiproliferative activity against human KB cells after 4 hrs by MTT assay. The assay is classed as functional, cell-based.
Assay [3] deals with T1, Amine oxidase [flavin-containing] B (Homo sapiens, UniProt P27338).
T1 sequence (P27338 whole entry): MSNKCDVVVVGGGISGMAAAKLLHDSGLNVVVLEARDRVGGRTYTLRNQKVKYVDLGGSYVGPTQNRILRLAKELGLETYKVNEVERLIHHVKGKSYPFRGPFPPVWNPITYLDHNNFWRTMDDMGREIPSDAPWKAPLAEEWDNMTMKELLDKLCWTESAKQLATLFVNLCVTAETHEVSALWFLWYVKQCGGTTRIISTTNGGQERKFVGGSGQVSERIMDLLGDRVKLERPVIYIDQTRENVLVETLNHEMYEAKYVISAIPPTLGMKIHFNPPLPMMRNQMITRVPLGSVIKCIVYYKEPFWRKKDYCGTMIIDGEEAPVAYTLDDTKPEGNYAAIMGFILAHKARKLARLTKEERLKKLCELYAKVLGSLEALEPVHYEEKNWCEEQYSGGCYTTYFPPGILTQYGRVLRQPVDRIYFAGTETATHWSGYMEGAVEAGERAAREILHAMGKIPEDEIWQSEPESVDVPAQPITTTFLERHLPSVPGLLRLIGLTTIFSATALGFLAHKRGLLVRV
As to the kind of experiment: Inhibition of human MAO-B using p-tyramine as substrate by amplex red-based fluorescence assay.

The target of a further assay is Beta-secretase 1 (Homo sapiens, UniProt P56817). As to the kind of experiment: Inhibition of recombinant human BACE-1 using rhodamine labelled EVNLDAEFK as substrate after 90 mins by FRET assay.
For the next assay, the system named is MCF7. The experiment in a line: Antiproliferative activity against human MCF7 cells after 4 hrs by MTT assay. The format is functional, cell-based. The settings on record: MCF7, 4 h.

Values after ≈ are worked out from the molar mass of the structure shown.

Sequence of Acetylcholinesterase (O42275 whole entry): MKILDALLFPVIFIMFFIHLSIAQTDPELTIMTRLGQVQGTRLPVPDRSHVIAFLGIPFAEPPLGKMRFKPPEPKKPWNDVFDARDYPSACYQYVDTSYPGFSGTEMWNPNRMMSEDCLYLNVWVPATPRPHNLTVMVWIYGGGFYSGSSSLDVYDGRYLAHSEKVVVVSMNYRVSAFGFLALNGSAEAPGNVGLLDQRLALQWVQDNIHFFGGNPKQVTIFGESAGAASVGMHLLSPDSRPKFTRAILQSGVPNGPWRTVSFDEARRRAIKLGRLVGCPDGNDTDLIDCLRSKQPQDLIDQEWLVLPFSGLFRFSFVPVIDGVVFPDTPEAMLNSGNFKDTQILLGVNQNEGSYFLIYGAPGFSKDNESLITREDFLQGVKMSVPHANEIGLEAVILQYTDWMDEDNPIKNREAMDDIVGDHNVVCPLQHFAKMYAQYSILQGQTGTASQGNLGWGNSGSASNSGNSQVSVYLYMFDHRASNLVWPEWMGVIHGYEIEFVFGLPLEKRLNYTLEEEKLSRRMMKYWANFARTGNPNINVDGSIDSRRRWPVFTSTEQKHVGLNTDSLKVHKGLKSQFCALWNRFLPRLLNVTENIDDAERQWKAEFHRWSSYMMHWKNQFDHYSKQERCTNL
Sequence of Beta-secretase 1 (P56817 whole entry): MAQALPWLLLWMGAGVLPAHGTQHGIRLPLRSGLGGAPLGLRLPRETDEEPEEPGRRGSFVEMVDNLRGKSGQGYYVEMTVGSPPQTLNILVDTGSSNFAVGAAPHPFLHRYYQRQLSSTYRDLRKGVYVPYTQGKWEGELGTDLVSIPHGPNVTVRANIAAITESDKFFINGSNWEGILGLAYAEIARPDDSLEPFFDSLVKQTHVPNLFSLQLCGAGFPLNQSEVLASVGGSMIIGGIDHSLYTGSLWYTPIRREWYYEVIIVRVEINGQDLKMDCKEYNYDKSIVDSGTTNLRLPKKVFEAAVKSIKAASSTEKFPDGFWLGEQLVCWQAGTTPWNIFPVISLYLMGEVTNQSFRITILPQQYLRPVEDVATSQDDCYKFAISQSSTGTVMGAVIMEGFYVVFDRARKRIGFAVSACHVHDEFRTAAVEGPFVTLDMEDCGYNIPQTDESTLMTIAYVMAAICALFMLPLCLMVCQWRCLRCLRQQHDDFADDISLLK

In general, IC50 refers to the midpoint of a concentration-inhibition curve. Turning to `NC1=C(/C=C2\COc3ccccc3C2=O)C(=O)C2C=CC=CC2O1` (stereo unspecified), the IC50 against Acetylcholinesterase is 0.27 µM.

As to `O=c1cc(N2CCOCC2)oc2c(-c3ccccc3)cccc12` [LY-294002], the IC50 in the assay with MG-63 turned out to be 55.2 µM; in the assay with U2OS, 63 µM.

Consider `O=C1/C(=C/C2=COC3C=CC(Br)=CC3C2=O)COc2ccccc21` (stereo unspecified), for which the midpoint of inhibition on Acetylcholinesterase, the IC50, lay at 0.96 µM.

Usually MIC stands for the lowest concentration found to suppress growth. Low values mean greater potency, high ones weaker potency. On to `CC(C)(C)n1nnnc1C(Nc1ccccc1I)c1coc2ccccc2c1=O` (stereo unspecified), for which the MIC against Pseudomonas aeruginosa was found to be 160 µg/mL (≈ 319 µM); with Staphylococcus aureus, 40 µg/mL (≈ 79.8 µM). Besides, the IC50 in the assay on Entamoeba histolytica amounted to 61.7 µg/mL (≈ 123 µM).

Broadly, the EC50 is the concentration giving half of the maximal effect. On to `COc1ccc2c(c1)OC/C(=C\c1ccc(O)c(O)c1)C2=O`, for which the EC50 in assay [1] is 13 µM. This molecule also showed an IC50 in [2] of 28 µM.

In the case of `COc1cc(NC(c2coc3cc(F)ccc3c2=O)c2nnnn2C2CCCCC2)cc(OC)c1OC` (stereo unspecified), the MIC in the assay with Pseudomonas aeruginosa is 80 µg/mL (≈ 157 µM); against Staphylococcus aureus, 160 µg/mL (≈ 314 µM); against Candida tropicalis, 6250 µg/mL (≈ 12300 µM).

Take `O=c1c(/C=C/c2ccc(O)c(O)c2)coc2ccc(O)cc12`: the EC50 in [1] came out at 17 µM. In addition, the IC50 in assay [2] amounted to 16 µM.

In turn, `COc1ccc2c(=O)c(/C=C3\SC(=O)NC3=O)coc2c1` had an IC50 with KB of 44.1 µg/mL (≈ 145 µM).

As for `Cc1ccc(N/C=C2\C(=O)Oc3ccccc3C2=O)cc1`, half-maximal inhibition in assay [3] (IC50) required 0.0423 µM.

As for `CC(C)(C)n1nnnc1C(Nc1ccccc1)c1coc2cc(F)ccc2c1=O` (stereo unspecified), the MIC with Pseudomonas aeruginosa came out at 20 µg/mL (≈ 50.8 µM); with Staphylococcus aureus, 80 µg/mL (≈ 203 µM).

Regarding `CCCCCC(=O)Oc1ccc2c(=O)c(C3C(OC(=O)CC)=C(C)NC(C)=C3OC(=O)CC)coc2c1`, the IC50 on Beta-secretase 1 stood at 6.84 µM.

Take `COc1ccc2c(=O)c(/C=C3\SC(=O)N(C)C3=O)coc2c1`: in the assay on MCF7, inhibition was half-maximal at 32.8 µg/mL (≈ 103 µM) (IC50).

In turn, `CC(C)(C)n1nnnc1C(Nc1ccc(Cl)cc1)c1coc2cc(F)ccc2c1=O` (stereo unspecified) showed an IC50 in the assay on Entamoeba histolytica of 61.7 µg/mL (≈ 144 µM).
